{"source": "patent US20020155088A1", "about": "“Tumor treatment by using oligoaniline” (priority 2001, published 2002)", "key": {"[1]": {"system": "Murine sarcoma 180 cells (subcutaneous tumors)", "assay": "In vivo photodynamic therapy study in tumor-bearing mice", "parameters": "species or system male ICR mice", "conditions": "10 mg/kg intraperitoneal", "text": "Oligoanilines that show efficacy in preliminary studies can be further tested to confirm their efficacy by an in vivo assay on tumor-bearing mice. For example, see Chiang, et al. Proc. Electrochem. Soc., 1999, 99-12, 238-249. More specifically, a tumor-bearing mouse can be first administered with an oligoaniline to be tested in PBS close to the tumor site. The mouse is then kept in the dark while the oligoaniline is circulated to the tumor site. The tumor site is exposed by removing the hair on and around it, and then irradiated with a laser beam or other light source. After the irradiation, the growth of the tumor in the mouse is examined at different time intervals. The inhibitory effect can be evaluated by measuring the body weights of the mouse and the volumes of the tumor. After the mouse is sacrificed, the final body weight, the weights of various organs, and the final volume and weight of the tumor are measured; and blood is collected for biochemistry and hematology analyses. The data are evaluated used to determine the photodynamic therapeutic and other effects. […]\nThe mice in groups (1) and (2) were subsequently kept in the dark for 24 hours, and then anesthetized with avertine (0.3 mL/head). […] After the irradiation, the body weights and tumor volumes of the mice were measured every 5 days for 30 days. […]"}, "[2]": {"system": "Fibrosarcoma cells (CCRC60037) and sarcoma 180 cells", "assay": "In vitro irradiation-induced cytotoxicity based on tumor cell viability (MTT/formazon)", "experimental": "An in vitro inhibition assay can be performed to preliminarily evaluate an oligoaniline's ability to inhibit the growth of tumor cells. For example, an oligoaniline solution is added to a pre-incubated cell suspension. Subsequently, the cell suspension is irradiated with fluorescence light, followed by further incubation. A 3-(4,5-dimethylthiazol-2-yl)-2,5-diphenyl-tetrazolium bromide solution is then added to the cell suspension to react with mitochrondrial dehydrogenase to form formazon, which is extracted with dimethyl sulfoxide (DMSO). The DMSO extract solution is immediately used for optical measurement to determine the formazon quantity, which correlates with the quantity of dehydrogenase or the relative number of the living cells.\nTwo types of tumor cells used in this study were prepared as follows: Fibrosarcoma cells (CCRC60037) and sarcoma 180 cells (obtained form Biochemical Institute of Chung Shan Medical and Dental College, Taiwan) were maintained and cultured in an cc-modified eagle medium (MEM) containing L-glutamine and phenol red, 10% fetal bovine serum, and antibiotics (100 units/mL of penicillin G and 100 μg/mL streptomycin sulfate). The cells were incubated in the dark in 95% humidified air plus 5% CO2, harvested by treatment with trypsin-EDTA, and then suspended in an α-MEM at the concentration of 1×10^4 cells/mL.\nThe cell suspension thus obtained was placed in wells of a 24-well plate (500 μL each) and pre-incubated at 37° C. for 24 hours. A16S solutions of various concentrations (0-10 μM) were then added to the wells (500 μL each). The wells were irradiated with fluorescence light (27 watts) for 0-60 minutes. The distance between the plate cover and the light source was 5-6 cm. After irradiation, the cells were further incubated for 48 hours. A solution of 3-(4,5-dimethylthiazol-2-yl)-2,5-diphenyl-tetrazolium bromide (0.5% in PBS; 100 μL each) was then added to each cell suspension, thereby causing the cells to produce formazon. After incubation at 37° C. for 3 hours, the suspension medium was discarded. Formazon formed in the cells from each well was extracted with DMSO (1.0 mL), and the DMSO extract solution was immediately measured for absorbance at […]. The absorbance directly correlated with the quantity of formazon, and thus with the quantity of dehydrogenase enzyme or the relative number of the living cells (i.e., viability). […] A maximal photodynamic cytotoxicity efficacy of >90% was obtained at an A16S concentration of 5.0-10.0 μM and an irradiation time of 60 minutes."}, "ferricytochrome C": {"system": "ferricytochrome C", "assay": "In vitro irradiation-induced superoxide generation (ferricytochrome C reduction)", "type": "biochemical", "conditions": "25 μM A16S aqueous solution, fluorescence light 27 watts, irradiation time 0, 30, 60, 90 minutes", "experimental": "The mixture thus obtained was added into wells of a 24-well plate, and exposed to fluorescence light source (27 watts) for 0-90 minutes. The distance between the plate cover and the light source was 5-6 cm. The reduction extent of ferricytochrome C was evaluated based on its absorbance at 550 nm, which corresponded to the increase of the quantity of reduced ferrocytochrome C."}}}
{"substance": "Sulfobutylated Hexadecaaniline [A16S]", "values": [{"measurement": "average tumor weight relative to tumor control group", "setting": "[1]; laser 633 nm 100 J/cm^2, day 30", "result": "about 40%"}, {"measurement": "tumor growth rates versus tumor control group", "setting": "[1]; laser 633 nm 100 J/cm^2, entire 30 day study period", "result": "much lower"}, {"measurement": "cell viability", "setting": "[2]; A16S 0-10 μM, fluorescence light 27 watts, irradiation 0-60 minutes, 48 hours further incubation", "result": "decreased as the A16S dosage and irradiation time increased"}, {"measurement": "maximal photodynamic cytotoxicity efficacy", "setting": "[2]; A16S 5.0-10.0 μM, irradiation time 60 minutes", "result": "> 90", "unit": "%"}, {"measurement": "IC50", "setting": "[2]; irradiation time 60 minutes", "result": 1000, "unit": "nM"}, {"measurement": "viable cells", "setting": "[2]; irradiation time 60 minutes, A16S concentration increased from 0 to 2.5 μM", "result": "a sharp loss of viable cells was observed"}, {"measurement": "cytotoxicity in the absence of light irradiation", "setting": "[2]; no irradiation, highest A16S concentration 10.0 μM", "result": "no cytotoxicity was observed"}, {"measurement": "amount of superoxide free radicals (ferrocytochrome C absorbance at 550 nm)", "setting": "ferricytochrome C", "result": "increased as the irradiation time increased"}]}
